Source: patent US11370798B2 (Vertex Pharmaceuticals Incorporated, priority 2012, dated 2022)

Tested on: HCT116 colorectal cancer cells
Assay: Cisplatin sensitization assay (96 h cell viability MTS);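 note: Test-compound concentration that lowers the Cisplatin IC50 by a set fold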
Format: cell-based
Conditions: compound and Cisplatin added simultaneously, Cisplatin sensitization value
Method in brief: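 Viability read by MTS (1 h at 37° C) after 96 h co-exposure at 37° C, 5% CO2. Test compound and cisplatin were dosed simultaneously in a full concentration matrix, each 2-fold serially diluted from 10 μM final; sensitization values binned in μM.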

## CN1CCC(Oc2c(Cl)cncc2NC(=O)c2c(N)nn3cc(Cl)cnc23)CC1 [I-O-46, 2-amino-6-chloro-N-(5-chloro-4-((1-methylpiperidin-4-yl)oxy)pyridin-3-yl)pyrazolo[1,5-a]pyrimidine-3-carboxamide]
  Cisplatin Sensitization Assay: + (Cisplatin sensitization value>0.2 μM but <5 μM)

## CC(C)(C)NC(=O)C1CCN(c2c(F)cncc2NC(=O)c2c(N)nn3cc(F)cnc23)CC1 [I-G-19, 2-amino-N-(4-(4-(tert-butylcarbamoyl)piperidin-1-yl)-5-fluoropyridin-3-yl)-6-fluoropyrazolo[1,5-a]pyrimidine-3-carboxamide]
  Cisplatin Sensitization Assay: ++ (Cisplatin sensitization value>0.02 μM but <0.2 μM)

## Nc1nn2cc(F)cnc2c1C(=O)Nc1cncc(F)c1N1CCC(n2ccnc2)CC1 [I-N-288, N-(4-(4-(1H-imidazol-1-yl)piperidin-1-yl)-5-fluoropyridin-3-yl)-2-amino-6-fluoropyrazolo[1,5-a]pyrimidine-3-carboxamide]
  Cisplatin Sensitization Assay: +++ (Cisplatin sensitization value of <0.02 μM)

## CN1CCN(C(=O)N2CCN(c3c(F)cncc3NC(=O)c3c(N)nn4cc(F)cnc34)CC2)CC1 [I-N-140, 2-amino-6-fluoro-N-(5-fluoro-4-(4-(4-methylpiperazine-1-carbonyl)piperazin-1-yl)pyridin-3-yl)pyrazolo[1,5-a]pyrimidine-3-carboxamide]
  Cisplatin Sensitization Assay: +++ (Cisplatin sensitization value of <0.02 μM)

## Nc1nn2cc(Cl)cnc2c1C(=O)Nc1cnccc1OCC(F)(F)F [I-O-59, 2-amino-6-chloro-N-(4-(2,2,2-trifluoroethoxy)pyridin-3-yl)pyrazolo[1,5-a]pyrimidine-3-carboxamide]
  Cisplatin Sensitization Assay: +++ (Cisplatin sensitization value of <0.02 μM)

## COc1ccncc1NC(=O)c1c(N)nn2cc(F)cnc12 [I-O-4, 2-amino-6-fluoro-N-(4-methoxypyridin-3-yl)pyrazolo[1,5-a]pyrimidine-3-carboxamide]
  Cisplatin Sensitization Assay: ++ (Cisplatin sensitization value>0.02 μM but <0.2 μM)

## Nc1nn2cc(F)cnc2c1C(=O)Nc1cnccc1Oc1cccnc1 [I-O-7, 2-amino-6-fluoro-N-(4-(pyridin-3-yloxy)pyridin-3-yl)pyrazolo[1,5-a]pyrimidine-3-carboxamide]
  Cisplatin Sensitization Assay: ++ (Cisplatin sensitization value>0.02 μM but <0.2 μM)

## Nc1nn2cc(F)cnc2c1C(=O)Nc1cnccc1-c1ccc(C(=O)N2CCN(C3COC3)CC2)cc1F [I-C-51, 2-amino-6-fluoro-N-(4-(2-fluoro-4-(4-(oxetan-3-yl)piperazine-1-carbonyl)phenyl)pyridin-3-yl)pyrazolo[1,5-a]pyrimidine-3-carboxamide]
  Cisplatin Sensitization Assay: ++ (Cisplatin sensitization value>0.02 μM but <0.2 μM)

## Cc1ccnnc1-c1ccncc1NC(=O)c1c(N)nn2cc(F)cnc12 [I-C-33, 2-amino-6-fluoro-N-(4-(4-methylpyridazin-3-yl)pyridin-3-yl)pyrazolo[1,5-a]pyrimidine-3-carboxamide]
  Cisplatin Sensitization Assay: + (Cisplatin sensitization value>0.2 μM but <5 μM)

## Nc1nn2cc(F)cnc2c1C(=O)Nc1cnccc1N1CCC(S(=O)(=O)N2CCN3CCC2CC3)CC1 [I-N-196, N-(4-(4-(1,4-diazabicyclo[3.2.2]nonan-4-ylsulfonyl)piperidin-1-yl)pyridin-3-yl)-2-amino-6-fluoropyrazolo[1,5-a]pyrimidine-3-carboxamide]
  Cisplatin Sensitization Assay: +++ (Cisplatin sensitization value of <0.02 μM)

## Nc1nn2cc(Cl)cnc2c1C(=O)Nc1cnccc1N1CCC(N2CCn3cncc3C2)CC1 [I-N-101, 2-amino-6-chloro-N-(4-(4-(5,6-dihydroimidazo[1,5-a]pyrazin-7(8H)-yl)piperidin-1-yl)pyridin-3-yl)pyrazolo[1,5-a]pyrimidine-3-carboxamide]
  Cisplatin Sensitization Assay: ++ (Cisplatin sensitization value>0.02 μM but <0.2 μM)

## COc1cncc(NC(=O)c2c(N)nn3cc(F)cnc23)c1C1CC1 [I-C-84, 2-amino-N-(4-cyclopropyl-5-methoxypyridin-3-yl)-6-fluoropyrazolo[1,5-a]pyrimidine-3-carboxamide]
  Cisplatin Sensitization Assay: ++ (Cisplatin sensitization value>0.02 μM but <0.2 μM)

## Nc1nn2cc(Cl)cnc2c1C(=O)Nc1cnccc1N1CCCC(N)C1 (centres unmarked) [I-N-55, 2-amino-N-(4-(3-aminopiperidin-1-yl)pyridin-3-yl)-6-chloropyrazolo[1,5-a]pyrimidine-3-carboxamide]
  Cisplatin Sensitization Assay: ++ (Cisplatin sensitization value>0.02 μM but <0.2 μM)

## CN1CC[C@@H](OC2CCN(c3c(F)cncc3NC(=O)c3c(N)nn4cc(F)cnc34)CC2)C1 [I-N-132, (R)-2-amino-6-fluoro-N-(5-fluoro-4-(4-((1-methylpyrrolidin-3-yl)oxy)piperidin-1-yl)pyridin-3-yl)pyrazolo[1,5-a]pyrimidine-3-carboxamide]
  Cisplatin Sensitization Assay: +++ (Cisplatin sensitization value of <0.02 μM)

## Nc1nn2cc(Cl)cnc2c1C(=O)Nc1cnccc1N1CCC(N2CC[S+]([O-])CC2)CC1 [I-N-100, 2-amino-6-chloro-N-(4-(4-(1-oxidothiomorpholino)piperidin-1-yl)pyridin-3-yl)pyrazolo[1,5-a]pyrimidine-3-carboxamide]
  Cisplatin Sensitization Assay: ++ (Cisplatin sensitization value>0.02 μM but <0.2 μM)

## Nc1nn2cc(F)cnc2c1C(=O)Nc1cnccc1OC1COC1 [I-O-92, 2-amino-6-fluoro-N-(4-(oxetan-3-yloxy)pyridin-3-yl)pyrazolo[1,5-a]pyrimidine-3-carboxamide]
  Cisplatin Sensitization Assay: +++ (Cisplatin sensitization value of <0.02 μM)

## Cc1cc(C(=O)N2CCN(C)CC2)ccc1-c1ccncc1NC(=O)c1c(N)nn2cc(F)cnc12 [I-C-45, 2-amino-6-fluoro-N-(4-(2-methyl-4-(4-methylpiperazine-1-carbonyl)phenyl)pyridin-3-yl)pyrazolo[1,5-a]pyrimidine-3-carboxamide]
  Cisplatin Sensitization Assay: +++ (Cisplatin sensitization value of <0.02 μM)

## Cn1ccnc1-c1ccncc1NC(=O)c1c(N)nn2cc(F)cnc12 [I-C-55, 2-amino-6-fluoro-N-(4-(1-methyl-1H-imidazol-2-yl)pyridin-3-yl)pyrazolo[1,5-a]pyrimidine-3-carboxamide]
  Cisplatin Sensitization Assay: + (Cisplatin sensitization value>0.2 μM but <5 μM)

## Cn1nccc1-c1ccncc1NC(=O)c1c(N)nn2cc(F)cnc12 [I-C-57, 2-amino-6-fluoro-N-(4-(1-methyl-1H-pyrazol-5-yl)pyridin-3-yl)pyrazolo[1,5-a]pyrimidine-3-carboxamide]
  Cisplatin Sensitization Assay: +++ (Cisplatin sensitization value of <0.02 μM)

## Nc1nn2cc(Cl)cnc2c1C(=O)Nc1cnccc1N1CC[S+]([O-])CC1 [I-N-68, 2-amino-6-chloro-N-(4-(1-oxidothiomorpholino)pyridin-3-yl)pyrazolo[1,5-a]pyrimidine-3-carboxamide]
  Cisplatin Sensitization Assay: +++ (Cisplatin sensitization value of <0.02 μM)

## N#CCc1cnc2c(C(=O)Nc3cnccc3OC3CCCNC3)c(N)nn2c1 (racemic) [I-O-2, (R,S)-2-amino-6-(cyanomethyl)-N-(4-(piperidin-3-yloxy)pyridin-3-yl)pyrazolo[1,5-a]pyrimidine-3-carboxamide]
  Cisplatin Sensitization Assay: ++ (Cisplatin sensitization value>0.02 μM but <0.2 μM)

## CN1CCC(C(=O)N2CC=C(c3c(F)cncc3NC(=O)c3c(N)nn4cc(F)cnc34)CC2)CC1 [I-C-38, 2-amino-6-fluoro-N-(5-fluoro-1′-(1-methylpiperidine-4-carbonyl)-1′,2′,3′,6′-tetrahydro-[4,4′-bipyridin]-3-yl)pyrazolo[1,5-a]pyrimidine-3-carboxamide]
  Cisplatin Sensitization Assay: ++ (Cisplatin sensitization value>0.02 μM but <0.2 μM)

## Nc1nn2cc(F)cnc2c1C(=O)Nc1cncc(F)c1N1CCC(C(=O)N2CC3CNCC3C2)CC1 (centres unmarked) [I-G-51, 2-amino-6-fluoro-N-(5-fluoro-4-(4-(octahydropyrrolo[3,4-c]pyrrole-2-carbonyl)piperidin-1-yl)pyridin-3-yl)pyrazolo[1,5-a]pyrimidine-3-carboxamide]
  Cisplatin Sensitization Assay: +++ (Cisplatin sensitization value of <0.02 μM)

## Cn1ccc2cncc(NC(=O)c3c(N)nn4cc(F)cnc34)c21 [I-N-259, 2-amino-6-fluoro-N-(1-methyl-1H-pyrrolo[3,2-c]pyridin-7-yl)pyrazolo[1,5-a]pyrimidine-3-carboxamide]
  Cisplatin Sensitization Assay: + (Cisplatin sensitization value>0.2 μM but <5 μM)

## CN1CC[C@H](Oc2ccncc2NC(=O)c2c(N)nn3cc(Cl)cnc23)C1 [I-O-69, (S)-2-amino-6-chloro-N-(4-((1-methylpyrrolidin-3-yl)oxy)pyridin-3-yl)pyrazolo[1,5-a]pyrimidine-3-carboxamide]
  Cisplatin Sensitization Assay: ++ (Cisplatin sensitization value>0.02 μM but <0.2 μM)

## Nc1nn2cc(Cl)cnc2c1C(=O)Nc1cnccc1N1CCN(C2CCC2)CC1 [I-N-48, 2-amino-6-chloro-N-(4-(4-cyclobutylpiperazin-1-yl)pyridin-3-yl)pyrazolo[1,5-a]pyrimidine-3-carboxamide]
  Cisplatin Sensitization Assay: ++ (Cisplatin sensitization value>0.02 μM but <0.2 μM)

## CN1CCC[C@H]1COc1ccncc1NC(=O)c1c(N)nn2cc(Cl)cnc12 [I-O-50, (S)-2-amino-6-chloro-N-(4-((1-methylpyrrolidin-2-yl)methoxy)pyridin-3-yl)pyrazolo[1,5-a]pyrimidine-3-carboxamide]
  Cisplatin Sensitization Assay: + (Cisplatin sensitization value>0.2 μM but <5 μM)

## CN1CCN(c2c(Cl)cncc2NC(=O)c2c(N)nn3cc(F)cnc23)CC1 [I-N-85, 2-amino-N-(5-chloro-4-(4-methylpiperazin-1-yl)pyridin-3-yl)-6-fluoropyrazolo[1,5-a]pyrimidine-3-carboxamide]
  Cisplatin Sensitization Assay: ++ (Cisplatin sensitization value>0.02 μM but <0.2 μM)

## Nc1nn2cc(F)cnc2c1C(=O)Nc1cnccc1N1CCC(c2nnco2)CC1 [I-N-268, N-(4-(4-(1,3,4-oxadiazol-2-yl)piperidin-1-yl)pyridin-3-yl)-2-amino-6-fluoropyrazolo[1,5-a]pyrimidine-3-carboxamide]
  Cisplatin Sensitization Assay: +++ (Cisplatin sensitization value of <0.02 μM)
